Reference: article PMC7023466, “Novel N,N′-Disubstituted Acylselenoureas as Potential Antioxidant and Cytotoxic Agents” (Antioxidants, 2020)
Like-named read-outs stand apart in the source and are kept apart here.

Experiments:
MCF-7 cells = assay: MTT cell viability assay, MCF-7; format: cell-based, human; details: for reduction of cell growth / activity at 10 µM / activity at 50 µM / IC50: 48 h; for reduction of cell growth: in at least one of the cell lines (MCF-7, HT-29, HTB-54); for activity at 10 µM / activity at 50 µM / IC50: Homo sapiens, MCF7; for activity at 10 µM / activity at 50 µM: read-out: Growth (%) MCF-7; for SI (selectivity index): IC50 (184B5)/IC50 (MCF-7)
Procedure: (§1) The cell viability assay of each compound was carried out using the MTT assay. Each compound was dissolved in dimethyl sulfoxide (DMSO) at a concentration of 0.01 M. Serial dilutions were prepared with a non-supplemented culture medium. The effect of each compound on the cell viability was determined at two different concentrations (10 and 50 µM) in MCF-7, HTB-54, and HT-29 cells. In addition, the selected compounds were tested at six different concentrations between 0.1–100 µM in MCF-7, T47D, H1299, HTB-54, and 184B5 cells.
(§2) Briefly, 1 × 10^4 tumor cells/well or 2 × 10^4 non-tumorigenic cells/well were grown in 96-well plates for 12 h. Then, these cells were incubated with either DMSO (control) or a different concentration of each of the tested compounds for 48 h. Three hours before the termination point, 20 µL of MTT were added to measure the cellular viability. The resultant formazan crystals were dissolved in 50 µL of DMSO, and the absorbance was measured at 570 and 630 nm. The results are expressed as IC50, the half maximal inhibitory concentration. This value was calculated using OriginPro 8.5.1. software (OriginLab, Northampton, MA, USA) by nonlinear curve fitting. Furthermore, the selectivity index (SI) was calculated as the ratio of the IC50 values determined for the non-malignant and the tumor cells (IC50 (184B5)/IC50 (MCF-7). The data were obtained from at least three independent experiments performed in quadruplicates.

HT-29 cells = assay: MTT cell viability assay, HT-29; format: cell-based; details: Homo sapiens, 48 h, read-out: Growth (%) HT-29
Procedure: as §1, §2

HTB-54 cells = assay: MTT cell viability assay, HTB-54; format: cell-based; details: Homo sapiens, 48 h; for activity at 10 µM / activity at 50 µM: read-out: Growth (%) HTB-54
Procedure: as §1, §2

H1299 cells = assay: MTT cell viability assay, H1299; format: cell-based; details: Homo sapiens, NCI-H1299, lung cancer cells, 48 h
Procedure: as §1, §2

T47D cells = assay: MTT cell viability assay, T47D; format: cell-based; details: Homo sapiens, breast cancer cells, 48 h
Procedure: as §1, §2

184B5 cells = assay: MTT cell viability assay, non-malignant 184B5; format: cell-based; details: Homo sapiens, non-malignant breast cells, 48 h
Procedure: as §1, §2

[1] = DPPH radical scavenging assay; details: for DPPH radical scavenging: 0.003 mg/mL
Procedure: DPPH assay was performed as described by Svinyarov. Briefly, each compound was initially dissolved in absolute methanol at a concentration of 1 mg/mL, and serial dilutions were prepared. Ascorbic acid (Asc), a well-known and potent antioxidant, was used as a positive control. A methanolic solution (100 µM) of DPPH^• was prepared daily and […]. The absorbance measurements of this solution were needed in order to check the stability of the radical through the time of analysis. Then, 100 µL of DPPH in methanol were added to 100 µL of the compounds’ solutions, and the decolorization of the purple radical to the yellow reduced form was followed at 517 nm. Determinations were recorded at several time intervals. All of the measurements were carried out in triplicate. The results were expressed as the percentage of the radical scavenged, calculated using the following formula:(1) % DPPH radical scavenging = Acontrol−Asample/Acontrol × 100 where Acontrol refers to the absorbance of the negative control and Asample refers to the absorbance of the tested compounds. The results are expressed as percentage of DPPH radical scavenging ± standard deviation (SD).

[2] = ABTS radical scavenging assay; details: for ABTS radical scavenging: 0.03 mg/mL, after the incubation time; for ABTS radical scavenging activity compared with controls: 0.003 mg/mL
Procedure: ABTS radical scavenging was assayed with a colorimetric test as well [59]. Briefly, ABTS was dissolved in deionized water at 1 mg/mL and oxidized to ABTS^+• with potassium persulfate (2.45 mM final concentration). This reaction mixture was kept overnight at room temperature in the dark. After radical generation, ABTS^+• was diluted with 50% ethanol until an absorbance of 0.70 ± 0.02 at 734 nm for measurements. The tested compounds were solved in absolute ethanol at a concentration of 1 mg/mL, and 20 µL of this solution were added to 180 µL of the diluted ABTS^+•. After 6 min of incubation, the absorbance at 734 nm was recorded using 50% ethanol as the blank. Trolox and Asc were used as the positive controls. All of the determinations were carried out in triplicate. The same time intervals as in the DPPH assay were also measured. The ability to scavenge ABTS^+• was calculated using the following formula:(2) % ABTS radical scavenging=Acontrol−Asample/Acontrol × 100 where Acontrol refers to the absorbance of the negative control and Asample refers to the absorbance of the tested compounds. The results are expressed as percentage of ABTS radical scavenging ± SD.

[3] = breast cancer cells, MTT, read-out: IC50 MCF-7
[4] = HTB-54, lung cancer cells, MTT, read-out: IC50 HTB-54
[5] = MCF-7 and T47D pooled, read-out: IC50 on breast cancer cells
[6] = HTB-54 and H1299 pooled, read-out: IC50 on both lung cancer cells

Structure (SMILES)	reduction of cell growth (MCF-7 cells; 10 μM)	reduction of cell growth (MCF-7 cells; 50 μM)	activity at 10 µM (MCF-7 cells; 10 μM) [%]	activity at 50 µM (MCF-7 cells; 50 μM) [%]	IC50 (MCF-7 cells; [3]) [µM]	SI (selectivity index) (MCF-7 cells)	activity at 10 µM (HT-29 cells) [%]	activity at 50 µM (HT-29 cells) [%]	activity at 10 µM (HTB-54 cells; HTB-54) [%]	activity at 50 µM (HTB-54 cells; HTB-54) [%]	IC50 (HTB-54 cells; [4]) [µM]	IC50 (H1299 cells) [µM]	IC50 (T47D cells) [µM]	IC50 (184B5 cells) [µM]	DPPH radical scavenging [1]	IC50 (MCF-7 cells; [5]) [µM]	ABTS radical scavenging [2]	IC50 (HTB-54 cells; [6]) [µM]	ABTS radical scavenging activity compared with controls [2]	DPPH inhibition compared with Asc ([1]; 0.0006 mg/mL, all time-points)
O=C(NC(=[Se])Nc1ccccc1)c1ccco1 [Compound 6a]	at least 45%	more than 85%	39.9	5	3.5 ± 0.6	14.7	72.6	35.5	72.8	0.7	26.1 ± 2.3	30.2 ± 7.2	7.8 ± 1	52.2 ± 3.8	–	–	–	–	–	–
CSc1ccc(Cl)c(C(=O)NC(=[Se])Nc2ccc(C)cc2)c1 [Compound 3b]	–	–	64.2	24.5	–	–	64.7	42.5	45.1	22.2	–	–	–	–	around 40%	–	–	–	–	–
O=C(NC(=[Se])Nc1ccc(Cl)cc1)c1ccccc1 [Compound 1e]	–	–	74	13.9	–	–	77.9	33.8	82.3	57.2	–	–	–	–	around 40%	–	–	–	–	–
O=C(NC(=[Se])Nc1ccc(C(F)(F)F)cc1)c1cccs1 [Compound 5d]	at least 45%	more than 85%	46.7	23.5	4.2 ± 0.2	–	60.6	29.3	76.2	4.3	14.6 ± 6.3	7.5 ± 0.2	6.1 ± 0.4	> 100	–	4.2 to 8	–	–	–	–
O=C(NC(=[Se])Nc1ccc(C(F)(F)F)cc1)c1cc2ccccc2s1 [Compound 9d]	–	–	91.1	70.2	–	–	61.2	36	84.5	79.3	–	–	–	–	–	–	below 60%	–	–	–
O=C(NC(=[Se])Nc1ccccc1)c1ccc2c(c1)OCO2 [Compound 10a]	at least 45%	more than 85%	37.8	22.4	4.4 ± 1	>22.9	57.3	49.5	44	13.1	> 100	11.2 ± 0.8	8 ± 1	> 100	–	4.2 to 8	–	–	–	–
COc1ccc(NC(=[Se])NC(=O)c2ccc3c(c2)OCO3)cc1 [Compound 10c]	at least 45%	more than 85%	52.7	15.6	8.5 ± 0.6	6.3	55.7	35.5	78.2	5.1	5.2 ± 4	7.3 ± 0.2	12.9 ± 1.5	53.8 ± 10.5	–	–	–	1.5 to 7.3	–	–
COc1ccc(NC(=[Se])NC(=O)C=Cc2ccccc2)cc1 [Compound 8c]	–	–	70.2	5.7	–	–	73.4	42.5	64.1	19.3	–	–	–	–	–	–	–	–	potent radical scavenging activity similar to Trolox	–
COc1ccc(NC(=[Se])NC(=O)c2ccccc2)cc1 [Compound 1c]	–	–	67.8	13.9	–	–	74.9	31.9	64.4	57.2	–	–	–	–	around 40%	–	–	–	–	greater inhibition compared with Asc
Cc1ccc(NC(=[Se])NC(=O)C=Cc2ccccc2)cc1 [Compound 8b]	–	–	95.5	82.3	–	–	95.3	76.9	85.9	72.8	–	–	–	–	–	–	below 60%	–	–	–
O=C(NC(=[Se])Nc1ccc(C(F)(F)F)cc1)c1ccc2c(c1)OCO2 [Compound 10d]	–	–	60.6	8.4	7.9 ± 0.7	>12.7	66.5	13.9	79.6	5.1	23.4 ± 3.2	5.7 ± 0.1	11.8 ± 1.9	> 100	–	–	–	–	–	–
O=C(NC(=[Se])Nc1ccc(Cl)cc1)c1ccc2c(c1)OCO2 [Compound 10e]	at least 45%	more than 85%	55.6	16.9	11.7 ± 1.5	6.2	54.4	21.4	45.5	6.5	2.9 ± 3.2	48.6 ± 0.9	17.4 ± 3.1	73.1 ± 5.2	–	–	–	–	–	–
O=C(NC(=[Se])Nc1ccc(Cl)cc1)c1cc2ccccc2s1 [Compound 9e]	at least 45%	more than 85%	54.8	44.4	9.8 ± 0.9	>10.2	45.4	33.5	32.9	9	> 100	8.7 ± 1.4	7.1 ± 0.6	> 100	–	–	–	–	–	–
Cc1ccc(NC(=[Se])NC(=O)c2ccc3c(c2)OCO3)cc1 [Compound 10b]	at least 45%	more than 85%	63	7.4	7.3 ± 0.3	>13.6	63.3	43.9	16.4	12	1.5 ± 1.8	5.9 ± 1.4	11.9 ± 1	> 100	–	–	–	1.5 to 7.3	potent radical scavenging activity similar to Trolox	–
O=C(NC(=[Se])Nc1ccccc1)c1ccccc1Cl [Compound 2a]	–	–	93.6	30.5	–	–	79.1	37.8	91.3	65.6	–	–	–	–	around 40%	–	–	–	–	–
